Legend:
MT2 = assay: Cytotoxicity in human MT2 cells assessed as reduction in cell viability; type: functional
[1] = AUC in rat at 5 mg/kg, po; type: ADME, organism-based; parameters: dose 5 mg/kg, route po; conditions: in vivo, read-out: AUC
[2] = tested on: Human immunodeficiency virus 1; assay: Antiviral activity against HIV1 harbouring deltaV370/T371A mutant infected in human MT2 cells measured after 4 to 5 days by dual-luciferase reporter assay; type: functional, organism-based; conditions: Human immunodeficiency virus 1, MT2
[3] = tested on: Human immunodeficiency virus 1; assay: Antiviral activity against HIV1 harbouring T332S/V362I/prR41G mutant infected in human MT2 cells measured after 4 to 5 days by dual-luciferase reporter assay; type: functional, organism-based; conditions: Human immunodeficiency virus 1, MT2
[4] = tested on: Human immunodeficiency virus 1; assay: Antiviral activity against HIV1 wild type NL (4 to 3) infected in human MT2 cells measured after 4 to 5 days in presence of human serum by dual-luciferase reporter assay; type: functional, organism-based
[5] = tested on: Human immunodeficiency virus 1; assay: Antiviral activity against HIV1 wild type NL (4 to 3) infected in human MT2 cells measured after 4 to 5 days by dual-luciferase reporter assay; type: functional, organism-based; conditions: Human immunodeficiency virus 1, MT2
[6] = tested on: Human immunodeficiency virus 1; assay: Antiviral activity against HIV1 harbouring V362I/V370A mutant infected in human MT2 cells measured after 4 to 5 days by dual-luciferase reporter assay; type: functional, organism-based; conditions: Human immunodeficiency virus 1, MT2
[7] = Human immunodeficiency virus 1, MT2

Compound | CC50 (MT2) [nM] | AUC [1] [µM·h] | EC50 [2] [nM] | EC50 [3] [nM] | EC50 [4, 7] [nM] | EC50 [5] [nM] | EC50 ([4]; mt2) [nM] | EC50 [6] [nM]
C=C(C)[C@@H]1CC[C@]2(NCCN3CCS(=O)(=O)CC3)CC[C@]3(C)[C@H](CC[C@@H]4[C@@]5(C)CC=C(C6=CCC(C(=O)O)CC6)C(C)(C)[C@@H]5CC[C@]43C)[C@@H]12 (stereo not given in full) | 13900 | 12.9 | – | – | – | – | – | –
C=C(C)[C@@H]1CC[C@]2(NCCN3CCC(S(C)(=O)=O)CC3)CC[C@]3(C)[C@H](CC[C@@H]4[C@@]5(C)CC=C(C6=CC[C@](CF)(C(=O)O)CC6)C(C)(C)[C@@H]5CC[C@]43C)[C@@H]12 | 7100 | 24.1 | 8.2 | 6.5 | 14.7 | 2.3 | – | –
C=C(C)[C@@H]1CC[C@]2(NCCN3CCS(=O)(=O)CC3)CC[C@]3(C)[C@H](CC[C@@H]4[C@@]5(C)CC=C(C6=CCC(C)(C(=O)O)CC6)C(C)(C)[C@@H]5CC[C@]43C)[C@@H]12 (stereo not given in full) | 13100 | 5.86 | 9.8 | 4.8 | 12 | 1.5 | – | –
C=C(C)[C@@H]1CC[C@]2(NCCN3CCS(=O)(=O)CC3)CC[C@]3(C)[C@H](CC[C@@H]4[C@@]5(C)CC=C(C6=CCC(CC)(C(=O)O)CC6)C(C)(C)[C@@H]5CC[C@]43C)[C@@H]12 (stereo not given in full) | 27500 | – | – | 9.7 | 37.9 | 3.6 | – | –
C=C(C)[C@@H]1CC[C@]2(NCCN3CCS(=O)(=O)CC3)CC[C@]3(C)[C@H](CC[C@@H]4[C@@]5(C)CC=C(C6=CCC(COC)(C(=O)O)CC6)C(C)(C)[C@@H]5CC[C@]43C)[C@@H]12 (stereo not given in full) | 4700 | – | – | 13.9 | 6.7 | 1.5 | – | –
C=C(C)[C@@H]1CC[C@]2(NCCN3CCS(=O)(=O)CC3)CC[C@]3(C)[C@H](CC[C@@H]4[C@@]5(C)CC=C(C6=CCC(CF)(C(=O)O)CC6)C(C)(C)[C@@H]5CC[C@]43C)[C@@H]12 (single isomer, unassigned) [FIPRAVIRIMAT] | 13300 | 6.98 | 1.8 | 9.4 | – | 2 | 6.6 | –
C=C(C)[C@@H]1CC[C@]2(NCCN3CCS(=O)(=O)CC3)CC[C@]3(C)[C@H](CC[C@@H]4[C@@]5(C)CC=C(C6=CCC(OC)(C(=O)O)CC6)C(C)(C)[C@@H]5CC[C@]43C)[C@@H]12 (stereo not given in full) | 13100 | 8.24 | – | 21.8 | 25 | 2.5 | – | –
C=C(C)[C@@H]1CC[C@]2(NCCN3CCS(=O)(=O)CC3)CC[C@]3(C)[C@H](CC[C@@H]4[C@@]5(C)CC=C(C6=CCC(CC7CC7)(C(=O)O)CC6)C(C)(C)[C@@H]5CC[C@]43C)[C@@H]12 (stereo not given in full) | 16200 | – | – | 54.1 | 48.5 | 4.5 | – | –
C=C(C)[C@@H]1CC[C@]2(NCCN3CCC(S(C)(=O)=O)CC3)CC[C@]3(C)[C@H](CC[C@@H]4[C@@]5(C)CC=C(C6=CC[C@@](CF)(C(=O)O)CC6)C(C)(C)[C@@H]5CC[C@]43C)[C@@H]12 | 13400 | 19.1 | 5.8 | 8 | 18.3 | 1.9 | – | –
C=C(C)[C@@H]1CC[C@]2(NCCN3CCS(=O)(=O)CC3)CC[C@]3(C)[C@H](CC[C@@H]4[C@@]5(C)CC=C(C6=CCC(CCO)(C(=O)O)CC6)C(C)(C)[C@@H]5CC[C@]43C)[C@@H]12 (stereo not given in full) | 12700 | – | 5.3 | 15.9 | 85.8 | 4.6 | – | 4.5
C=C(C)[C@@H]1CC[C@]2(NCCN3CCS(=O)(=O)CC3)CC[C@]3(C)[C@H](CC[C@@H]4[C@@]5(C)CC=C(C6=CCC(CF)(C(=O)O)CC6)C(C)(C)[C@@H]5CC[C@]43C)[C@@H]12 (stereo not given in full) | 6800 | 7.7 | – | 3.9 | 9.5 | 1.3 | – | –
C=C(C)[C@@H]1CC[C@]2(NCCN3CCS(=O)(=O)CC3)CC[C@]3(C)[C@H](CC[C@@H]4[C@@]5(C)CC=C(C6=CCC(COCC)(C(=O)O)CC6)C(C)(C)[C@@H]5CC[C@]43C)[C@@H]12 (stereo not given in full) | 5100 | – | – | 11.5 | 21.8 | 3.2 | – | –
C=C(C)[C@@H]1CC[C@]2(NCCN3CCC(S(C)(=O)=O)CC3)CC[C@]3(C)[C@H](CC[C@@H]4[C@@]5(C)CC=C(C6=CCC(CC(F)F)(C(=O)O)CC6)C(C)(C)[C@@H]5CC[C@]43C)[C@@H]12 (stereo not given in full) | 7200 | 4.29 | – | 4 | 9.6 | 1.4 | – | –
C=C(C)[C@@H]1CC[C@]2(NCCN3CCS(=O)(=O)CC3)CC[C@]3(C)[C@H](CC[C@@H]4[C@@]5(C)CC=C(C6=CC7C(C6)C7C(=O)O)C(C)(C)[C@@H]5CC[C@]43C)[C@@H]12 (stereo not given in full) | 6400 | – | 16.7 | 299 | 30.9 | 2.3 | – | 657
C=C(C)[C@@H]1CC[C@]2(NCCN3CCS(=O)(=O)CC3)CC[C@]3(C)[C@H](CC[C@@H]4[C@@]5(C)CC=C(C6=CCC(CC(=O)O)CC6)C(C)(C)[C@@H]5CC[C@]43C)[C@@H]12 (stereo not given in full) | 6400 | – | 5.3 | 124 | 12 | 13.1 | – | 15.7
C=C(C)[C@@H]1CC[C@]2(NCCN3CCS(=O)(=O)CC3)CC[C@]3(C)[C@H](CC[C@@H]4[C@@]5(C)CC=C(C6=CCC(CC(=O)O)(C(=O)O)CC6)C(C)(C)[C@@H]5CC[C@]43C)[C@@H]12 (stereo not given in full) | 6400 | – | – | 14.1 | 135 | 3.5 | – | –
C=C(C)[C@@H]1CC[C@]2(NCCN3CCS(=O)(=O)CC3)CC[C@]3(C)[C@H](CC[C@@H]4[C@@]5(C)CC=C(C6=CCC(O)(C(=O)O)CC6)C(C)(C)[C@@H]5CC[C@]43C)[C@@H]12 (stereo not given in full) | 6400 | – | 2.4 | 28.5 | 13.1 | 2 | – | 6
C=C(C)[C@@H]1CC[C@]2(NCCN3CCS(=O)(=O)CC3)CC[C@]3(C)[C@H](CC[C@@H]4[C@@]5(C)CC=C(C6=CC7(C6)CC(C(=O)O)(C(=O)O)C7)C(C)(C)[C@@H]5CC[C@]43C)[C@@H]12 | > 30000 | – | – | – | – | 1.3 | – | –
C=C(C)[C@@H]1CC[C@]2(NCCN3CCS(=O)(=O)CC3)CC[C@]3(C)[C@H](CC[C@@H]4[C@@]5(C)CC=C(C6=CCC(C(=O)O)(C(=O)O)CC6)C(C)(C)[C@@H]5CC[C@]43C)[C@@H]12 | 18600 | – | – | 292 | – | – | – | –
C=C(C)[C@@H]1CC[C@]2(NCCN3CCS(=O)(=O)CC3)CC[C@]3(C)[C@H](CC[C@@H]4[C@@]5(C)CC=C(C6=CCC(OC(C)C)(C(=O)O)CC6)C(C)(C)[C@@H]5CC[C@]43C)[C@@H]12 (stereo not given in full) | 9700 | – | – | 987 | 48.5 | 5 | – | –
C=C(C)[C@@H]1CC[C@]2(NCCN3CCC(S(C)(=O)=O)CC3)CC[C@]3(C)[C@H](CC[C@@H]4[C@@]5(C)CC=C(C6=CCC(CF)(C(=O)O)CC6)C(C)(C)[C@@H]5CC[C@]43C)[C@@H]12 (stereo not given in full) | 12400 | 14.7 | – | 6.6 | 10.9 | 1.7 | – | –
C=C(C)[C@@H]1CC[C@]2(NCCN3CCS(=O)(=O)CC3)CC[C@]3(C)[C@H](CC[C@@H]4[C@@]5(C)CC=C(C6=CCC(C(=O)O)(c7ccccc7)CC6)C(C)(C)[C@@H]5CC[C@]43C)[C@@H]12 (stereo not given in full) | 13500 | – | – | 31.2 | 15.1 | 7.7 | – | –
C=C(C)[C@@H]1CC[C@]2(NCCN3CCC(S(C)(=O)=O)CC3)CC[C@]3(C)[C@H](CC[C@@H]4[C@@]5(C)CC=C(C6=CC[C@@H](C(=O)O)CC6)C(C)(C)[C@@H]5CC[C@]43C)[C@@H]12 | 9100 | 9.18 | – | 18.8 | 4.9 | – | – | –
C=C(C)[C@@H]1CC[C@]2(NCCN3CCC(S(C)(=O)=O)CC3)CC[C@]3(C)[C@H](CC[C@@H]4[C@@]5(C)CC=C(C6=CCC(CCCOC)(C(=O)O)CC6)C(C)(C)[C@@H]5CC[C@]43C)[C@@H]12 (stereo not given in full) | 12100 | – | – | 11.1 | 19.3 | 2 | – | –

Reference: ChEMBL document CHEMBL5113515, “The Discovery of GSK3640254, a Next-Generation Inhibitor of HIV-1 Maturation” (J Med Chem, 2022)
